# Source: patent US7098372B1, “Pharmaceutical compositions and methods of using secreted frizzled related protein” (Wyeth, priority 1999, dated 2006)
# pEC50, pIC50: −log10 of the molar value.
# How the values were obtained:
# hOB SFRP mRNA [1] = experiment: Northern blot analysis of hOB SFRP mRNA expression; assay type: cell-based, human; conditions: for regulation of SFRP mRNA: SaOS-2 human osteosarcoma cells
# Excerpt: The hOB SFRP gene fragment was identified using RADE (rapid analysis of differential expression) technology as described by Shiue 1997 Drug Develop. Res. 41: 142–159, the whole of which is incorporated herein. Three hOB cell lines (hOB-03-C5, hOB-03-CE6 and hOB-01-C1), representing three distinct stages of differentiation (proliferative, mature and preosteocytic, respectively) were used to isolate and identify SFRP. The hOB cell lines were established and cultured as previously described (Bodine et al. 1996 J. Bone Miner. Res. 11: 806–819; Bodine et al. 1996 Endocrinology 137: 4592–4604; Bodine et al. 1997 J. Cell. Biochem. 65: 368–387). […] However, in contrast to osteosarcoma cells (Stein and Lian 1993 Endocrine Rev. 14: 424–442), the hOB cell lines were faithful to the proliferation/differentiation relationship at the nonpermissive temperature (>37° C.) when the T-antigen mutant is inactivated. The cell lines were seeded into 150 mm dishes at ˜40,000 cells/cm^2 with growth medium [D-MEM/F-12 containing 10% (v/v) heat-inactivated fetal bovine serum (FBS), 1% (v/v) Penicillin-Streptomycin and 2 mM GlutaMAX-1] and incubated overnight at 34° C. The next day, the medium was removed, the cells were rinsed with phosphate-buffered saline (PBS), 20 ml of serum-free medium was added to the dishes [phenol red-free D-MEM/F-12 (Gibco/BRL) containing 0.25% (w/v) bovine serum albumin (BSA, Pentex crystallized, Bayer), 1% (v/v) Penicillin-Streptomycin, 2 mM GlutaMAX-1, […] ascorbate-2-phosphate (Wako), and 10 nM menadione sodium bisulfite (vitamin K3)], and the dishes were incubated at 39° C. for 24 hr. The next day, the medium was removed and the cells were treated at 39° C. for an additional 24 hr with 20 ml of fresh serum-free medium containing either vehicle (Control), 8 nM human parathyroid hormone 1–34 (PTH), 100 nM prostaglandin E2 (PGE2) or 0.1 nM human transforming growth factor-β1 (TGF-β1). PTH, PGE2 and TGF-β1 are known osteogenic agents (Whitfield and Morley 1995 Trends Pharmaceut. Sci. 16:382–386; Jee and Ma 1997 Bone 21:297–304; Centrella et al. 1994 Endocrine Rev. 15:27–39). After the treatment period, the dishes were rinsed with PBS and total cellular RNA was isolated from the nontreated and treated cells using TRIzol according to the manufacturers instructions (GibcoBRL). RADE was then performed with the isolated RNA samples as above; the regulated gene fragments were identified, cloned and sequenced. These experiments identified a total of 82 differentially expressed genes. A BLAST (basic local alignment search tool) search of the public data bases was performed on the RADE-obtained gene fragments; one of the gene fragments was highly homologous to mouse SFRP-1. This gene fragment was identified during RADE using the following primer pair: 5′-[…]-3′ (HT11A)3′ end (reverse primer) and 5′-[…]-3′ (H-AP1) 5′ end (forward primer), which sequences are SEQ ID NO 11 and SEQ ID NO 12, respectively. The expression and regulation of the gene fragment having homology to mouse cDNA SFRP-1 was confirmed by Northern blot analysis.
# In order to confirm the regulation of hOB SFRP gene expression by different osteogenic agents (i.e., the DNA fragment identified in Example 1, above), the hOB cell lines were treated with PTH, PGE2, and TGF-β1; RNA was then isolated for Northern hybridizations. The experiments were performed as follows. The hOB cell lines were seeded into 150 mm dishes and treated as described in Example 1, except that polyA+ RNA was isolated from total cellular RNA using Oligotex mRNA maxi kits as described by the manufacturer (Qiagen). Northern blot analysis was performed using either the excised RADE hOB SFRP gene fragment, the cloned hOB SFRP gene fragment or the cloned full-length hOB SFRP cDNA as a ^32P-labeled probe (as described in Bodine et al. 1996 J. Bone Miner. Res. 11: 806–819, which is incorporated herein). Each of these probes detected a 4.4–4.6 kb message in the hOB cells. […]
# hOB SFRP mRNA [2] = experiment: TaqMan quantitative RT-PCR of hOB SFRP mRNA; assay type: cell-based, human; conditions: 24 hr
# Protocol: In a similar manner, the hOB-01-C1 cells were seeded into 100 mm dishes and treated for 24 hr with increasing concentrations of TGF-β1. Total RNA was then isolated from the cells, and hOB SFRP mRNA was measured by TaqMan quantitative RT-PCR. TGF-β1 suppressed SFRP gene expression by approximately 70% in a dose-dependent manner with an IC50 of about 4 pM.
# In addition to the hOB cell lines from which SFRP was initially identified, additional in vitro human osteoblast models were examined for the presence of the gene. SaOS-2 human osteosarcoma osteoblast-like cells were obtained from the American Type-Culture Collection (ATCC) and were cultured at 37° C. in McCoy's 5A Modified medium containing 10% FBS, 1% (v/v) Penicillin-Streptomycin and 2 mM GlutaMAX-1. Likewise, explant cultures of normal human osteoblasts (hOBs) were established from cancellous bone chips as previously described (Bodine et al. 1996 J. Bone Miner. Res. 11: 806–819, which is incorporated herein by reference). The cells were then seeded into 150 mm dishes and treated as described in Examples 1 and 4, except that the cells were incubated at 37° C. instead of 39° C. PolyA+ RNA Northern blot analysis was performed using the cloned 1.1 kb hOB SRFP gene fragment as a ^32P-label). SaOS-2 cells expressed relatively low basal levels of SFRP mRNA which was not regulated by treatment with either PTH, PGE2 or TGF-β1 (FIG. 7). It was difficult to quantify expression of this gene in these cells, since the level of expression was low. In contrast, normal hOB cells expressed higher basal levels of SFRP message, and treatment of the cells with 100 nM PGE2 for 24 hr appeared to slightly up-regulate the steady-state levels of this mRNA (˜1.3-fold). […] Due to the low basal level expression in osteosarcoma cells, these cells may not be satisfactory in vitro models to study the regulation of the SFRP gene. Since the gene is expressed and regulated by PGE2 in cultures of normal human osteoblasts, the use of the hOB cell lines described in the present invention is validated for in vitro osteoblast models.
Compound,"regulation of SFRP mRNA (hOB SFRP mRNA [1]; 24 hr, 37° C.)","suppression of hOB SFRP mRNA levels (hOB SFRP mRNA [1]; hOB-01-C1 cells, 100 pM, 24 hr) [%]","pIC50 (hOB SFRP mRNA [2]; hOB-01-C1 cells, read-out: IC50 for suppression of SFRP gene expression)","suppression of SFRP gene expression (hOB SFRP mRNA [2]; hOB-01-C1 cells, increasing concentrations)","time course of hOB SFRP mRNA expression (hOB SFRP mRNA [1]; hOB-03-C5 cells, 100 nM, 2 to 24 hr)","hOB SFRP mRNA expression (hOB SFRP mRNA [1]; hOB-03-C5 cells, 100 nM, 24 hr)","pEC50 (hOB SFRP mRNA [1]; hOB-03-C5 cells, increasing concentrations, 24 hr, read-out: EC50 for up-regulation of hOB SFRP mRNA expression)","EC50 for up-regulation of hOB SFRP mRNA, times higher than in the hOB-03-C5 cells (hOB SFRP mRNA [1]; hOB-03-CE6 cells)",hOB SFRP mRNA expression (hOB SFRP mRNA [1]; maturation-stage hOB-03-CE6 cells),"up-regulation of steady-state SFRP mRNA levels (hOB SFRP mRNA [1]; normal hOB cells (explant cultures), 100 nM, 24 hr, 37° C.) [fold]","up-regulation of SFRP message (hOB SFRP mRNA [2]; normal hOB cells (explant cultures), 100 nM) [fold]"
human transforming growth factor-β1 [TGF-β1],not regulated,80,~11.40,approximately 70%,,,,,,,
"CCCCC[C@H](O)/C=C/[C@H]1[C@H](O)CC(=O)[C@@H]1C/C=C\CCCC(=O)O [PGE2, prostaglandin E2]",not regulated,,,,up-regulated hOB SFRP mRNA expression in a time-dependent manner,completely up-regulated,~8.10,about 10 times,up-regulation,~1.3,10
